From ChEMBL document CHEMBL1201862, “PubChem BioAssay data set” (2004)
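Step 1: Grow cells in 96-well plates. Step 2: Expose to compound for 48 hours at 5 concentrations. Step 3: Interpolate endpoints linearly; if unreached, use highest concentration. At the GI50, growth is halved.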 The source made the active and inactive calls. No stated cut-off is given here; in the data, active = GI50 up to about 1.1 µM and inactive = higher.

Key:
Test in all cases: NCI anticancer screen, dose series, 48 h
SK-MEL-28 = test system: SK-MEL-28
BT-549 = test system: BT-549
UACC-62 = test system: UACC-62
SW-620 = test system: SW-620
HOP-62 = test system: HOP-62
K562 = test system: K562
HL-60 = test system: HL-60
SK-OV-3 = test system: SK-OV-3
SK-MEL-2 = test system: SK-MEL-2
LOX IMVI = test system: LOX IMVI
CCRF-CEM = test system: CCRF-CEM
786-0 = test system: 786-0
NCI-H522 = test system: NCI-H522
HCT-116 = test system: HCT-116
KM12 = test system: KM12
Malme-3M = test system: Malme-3M
OVCAR-8 = test system: OVCAR-8
SK-MEL-5 = test system: SK-MEL-5
CAKI-1 = test system: CAKI-1
HOP-92 = test system: HOP-92

| SMILES | GI50 (SK-MEL-28) | GI50 (BT-549) | GI50 (UACC-62) | GI50 (SW-620) | GI50 (HOP-62) | GI50 (K562) | GI50 (HL-60) | GI50 (SK-OV-3) | GI50 (SK-MEL-2) | GI50 (LOX IMVI) | GI50 (CCRF-CEM) | GI50 (786-0) | GI50 (NCI-H522) | GI50 (HCT-116) | GI50 (KM12) | GI50 (Malme-3M) | GI50 (OVCAR-8) | GI50 (SK-MEL-5) | GI50 (CAKI-1) | GI50 (HOP-92) |
| --- | --- | --- | --- | --- | --- | --- | --- | --- | --- | --- | --- | --- | --- | --- | --- | --- | --- | --- | --- | --- |
| CN[C@@H]1C[C@H]2O[C@@](C)([C@@H]1OC)n1c3ccccc3c3c4c(c5c6ccccc6n2c5c31)C(=O)N[C@@H]4O | 0.0551 µM (active) | 0.108 µM (active) | 0.0282 µM (active) | 0.0764 µM (active) | < 0.0134 µM (active) | 0.31 µM (active) | 0.0877 µM (active) | 0.0267 µM (active) | 0.0145 µM (active) | 0.0331 µM (active) | 0.0165 µM (active) | 0.0266 µM (active) | 0.0484 µM (active) | 0.144 µM (active) | 0.0328 µM (active) | 0.0175 µM (active) | 0.0668 µM (active) | – | – | – |
| COc1ccc(/C=C/c2ccnc3ccccc23)c(OC)c1 | > 10 µM (inactive) | 7.18 µM (inactive) | 5.16 µM (inactive) | 5.94 µM (inactive) | > 10 µM (inactive) | 3.54 µM (inactive) | 3.61 µM (inactive) | > 10 µM (inactive) | 8.51 µM (inactive) | 7.71 µM (inactive) | 4.97 µM (inactive) | 9.25 µM (inactive) | 6.62 µM (inactive) | 3.56 µM (inactive) | 6 µM (inactive) | 5.69 µM (inactive) | 7.52 µM (inactive) | 3.66 µM (inactive) | > 10 µM (inactive) | – |
| CN1CN(c2ccccc2)C2(CCN(CC(C)(c3ccc(F)cc3)C3OCCCO3)CC2)C1=O (stereo not drawn) | 16.8 µM (inactive) | 5.31 µM (inactive) | 17.9 µM (inactive) | 20.6 µM (inactive) | 16.6 µM (inactive) | 13.2 µM (inactive) | 14.7 µM (inactive) | 26.4 µM (inactive) | – | 17.5 µM (inactive) | 13 µM (inactive) | 20.4 µM (inactive) | 16.8 µM (inactive) | 14.9 µM (inactive) | 15.5 µM (inactive) | 15.6 µM (inactive) | 19.4 µM (inactive) | 15.7 µM (inactive) | 19.7 µM (inactive) | – |
| NC1CC2NC3CCCCC3NC2CC1N (stereo not drawn) | 74.5 µM (inactive) | > 100 µM (inactive) | 33.6 µM (inactive) | 24.1 µM (inactive) | – | 31.8 µM (inactive) | 26.7 µM (inactive) | 28.4 µM (inactive) | 50.1 µM (inactive) | 31.6 µM (inactive) | 22.5 µM (inactive) | 30 µM (inactive) | 12.6 µM (inactive) | 24.1 µM (inactive) | 33.7 µM (inactive) | 46.6 µM (inactive) | 27.4 µM (inactive) | 27.7 µM (inactive) | 35 µM (inactive) | – |
| O=C1C=CC=C/C1=C1\N=C(c2ccccc2OCC(=O)c2ccccc2)SS1 | > 100 µM (inactive) | 46.1 µM (inactive) | > 100 µM (inactive) | > 100 µM (inactive) | 39.4 µM (inactive) | > 100 µM (inactive) | > 100 µM (inactive) | > 100 µM (inactive) | > 100 µM (inactive) | > 100 µM (inactive) | > 100 µM (inactive) | > 100 µM (inactive) | – | > 100 µM (inactive) | > 100 µM (inactive) | > 100 µM (inactive) | 73.5 µM (inactive) | – | > 100 µM (inactive) | > 100 µM (inactive) |
| CC(=O)OC/C=C(\C)CCC(Br)C(C)(C)Br (stereo not drawn) | > 10 µM (inactive) | > 10 µM (inactive) | > 10 µM (inactive) | > 10 µM (inactive) | > 10 µM (inactive) | > 10 µM (inactive) | > 10 µM (inactive) | > 10 µM (inactive) | > 10 µM (inactive) | > 10 µM (inactive) | > 10 µM (inactive) | > 10 µM (inactive) | > 10 µM (inactive) | > 10 µM (inactive) | > 10 µM (inactive) | > 10 µM (inactive) | > 10 µM (inactive) | > 10 µM (inactive) | > 10 µM (inactive) | – |
| O=C(O)C#Cc1ccc([N+](=O)[O-])cc1 | > 100 µM (inactive) | > 100 µM (inactive) | > 100 µM (inactive) | > 100 µM (inactive) | > 100 µM (inactive) | > 100 µM (inactive) | > 100 µM (inactive) | > 100 µM (inactive) | > 100 µM (inactive) | > 100 µM (inactive) | > 100 µM (inactive) | > 100 µM (inactive) | – | > 100 µM (inactive) | > 100 µM (inactive) | > 100 µM (inactive) | > 100 µM (inactive) | > 100 µM (inactive) | > 100 µM (inactive) | > 100 µM (inactive) |
